# Test results published in patent US11813268B2, “Mitofusin activators and uses thereof” (Albert Einstein College of Medicine, priority 2017, dated 2023).
# Peptide text beside a SMILES is read from it.
# Tests used:
# human Mfn2 = molecular target: T1, human Mfn2 (Homo sapiens, UniProt O95140); assay: FRET-based Mfn2 biosensor (wild type) in HEK 293T cells; assay type: cell-based; parameters: concentration or dose not given beside the values; details: WT FRET-based Mfn2 biosensor, 2 h
# T1 construct: expressed in transfected cells; host or cells: HEK 293T
# T1 sequence (O95140 1-757): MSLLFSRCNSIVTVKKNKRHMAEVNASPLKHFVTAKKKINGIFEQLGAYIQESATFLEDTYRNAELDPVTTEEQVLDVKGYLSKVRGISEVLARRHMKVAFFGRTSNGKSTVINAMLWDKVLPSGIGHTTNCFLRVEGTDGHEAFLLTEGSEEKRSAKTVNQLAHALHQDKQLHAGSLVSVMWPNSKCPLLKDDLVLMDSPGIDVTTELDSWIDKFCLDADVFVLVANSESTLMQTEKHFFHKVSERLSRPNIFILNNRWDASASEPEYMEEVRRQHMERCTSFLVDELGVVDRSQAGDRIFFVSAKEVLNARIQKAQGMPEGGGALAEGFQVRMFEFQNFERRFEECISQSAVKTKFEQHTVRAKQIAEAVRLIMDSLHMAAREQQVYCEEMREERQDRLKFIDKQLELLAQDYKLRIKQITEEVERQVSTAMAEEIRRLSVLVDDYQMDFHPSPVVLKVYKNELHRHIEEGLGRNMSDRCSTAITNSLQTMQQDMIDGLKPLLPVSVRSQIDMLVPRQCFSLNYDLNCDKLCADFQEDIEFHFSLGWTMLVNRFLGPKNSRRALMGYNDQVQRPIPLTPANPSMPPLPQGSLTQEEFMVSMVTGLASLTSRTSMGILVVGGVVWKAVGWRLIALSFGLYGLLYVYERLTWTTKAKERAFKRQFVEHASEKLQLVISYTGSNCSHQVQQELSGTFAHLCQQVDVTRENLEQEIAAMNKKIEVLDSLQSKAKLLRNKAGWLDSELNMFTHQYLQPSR
# Experimental: To generate FRET-based Mfn2 biosensor construct, pcDNA3.1-Flag-Mfn2 (5′Flag epitope cassette onto human Mfn2) was used as backbone, and mCerulean (cyan fluorescent protein; CFP) was fused onto 5′ of Mfn2 and mVenus (yellow fluorescent protein; YFP) onto 3′ of ORF of Mfn2 (20-22). […] Then, the mVenus fragment was fused into pcDNA3.1-Cerulean1-Mfn2 to generate pcDNA3.1-Cerulean1-Mfn2-mVenus with mega-mutagenesis PCR using mVenus fragment as mega primer. PCR conditions: lx 95° C. 10 min; 15×(95° C. 30 sec, […], 68° C. 18 min); 1×72° C. 10 min. The construct was confirmed by sequencing.
# Cells were transfected with the total amount of 2.5 μg of DNA per well for the indicated Mfn2 FRET constructs using Lipofectamine® 3000 Reagent (Invitrogen) according to the manufacturer's protocol. The following day, transfected cells were transferred to a pre-coated with poly L-lysine 96-well black plate (2×10^4 cells/well). […] GTPγS (Sigma Aldrich) was used to inhibit GTPase activity of Mfn2. Subsequently, cells were treated for 2 h with MASMs or vehicle (0.1% DMSO). Dilutions of MASMs were performed using a TECAN D300e Digital Dispenser from 10 mM stock solutions. […] Acceptor/Donor ratio referred to the text and figures correspond to the ratio of fluorescence intensities (relative fluorescence units: RFU) detected by the acceptor filter/donor filter. Non-transfected cells were used to subtract background fluorescence from each of the aforementioned filters that were used in the study.
# To evaluate the capacity of the selected hits to propel the pro-tethering conformation of Mfn2, a screening assay was developed based on a Forster resonance energy transfer (FRET) biosensor of Mfn2. […] Loss of intra-molecular HR1-HR2 interactions, occurring in the pro-tethering conformation of Mfn2, increase the distance between mCerulean and mVenus and lead to a decrease in the resonance energy that is transferred.
# WT MEFs = assay: cells; details: read-out: EC50 for inducing fusion (Mito AR); WT MEFs, mitochondrial aspect ratio
# Text: Next, it was visually examined if MASM7 could induce mitochondrial fusion in MEFs, using mitochondrial aspect ratio (mitochondrial length/width, reflecting fusion) as a readout. […] (FIG. 5).
Compound,% of FRET reduction (human Mfn2) [%],EC50 (WT MEFs) [nM]
CC(/N=N/C(=N)SC1CC(=O)N(c2cccc(C(=O)O)c2)C1=O)c1ccccc1 (centres unmarked) [MASM4],−8.6,–
CC1CCc2c(sc(NC(=O)CSc3nnc(C4CC4)n3-c3ccccc3)c2C(N)=O)C1 (centres unmarked) [MASM24],18.9,–
CC(Sc1nnnn1-c1ccc(O)cc1)C(=O)Nc1sc2c(c1C(N)=O)CCC2 (centres unmarked) [MASM40],22.6,–
NC(=O)c1c(NC(=O)CSc2nnc(C3CC3)n2-c2ccccc2)sc2c1CCC2 [MASM21],27.1,–
CC(c1cccc([N+](=O)[O-])c1)N(C)CC(=O)NCCSCc1ccccc1C#N (centres unmarked) [MASM5],0,–
Cc1ccc(C(=O)C(C)Sc2nnc3c(=O)n(-c4ccc(Br)cc4)ccn23)cc1C (centres unmarked) [MASM2],−0.5,–
COc1ccc2c(c1)C1(SCCN1C(=O)c1ccccc1C)C(=O)N2Cc1cccc(C(F)(F)F)c1 (centres unmarked) [MASM9],1.1,–
CC(Sc1nnc(Cc2cccs2)n1C1CC1)C(=O)Nc1sc2c(c1C(N)=O)CCC2 (centres unmarked) [MASM31],30.7,–
"CC[C@H](C)[C@H](NC(=O)CNC(=O)[C@H](CCCNC(=N)N)NC(=O)[C@@H](NC(=O)[C@H](CCC(=O)O)NC(=O)[C@H](C)NC(=O)[C@@H](NC(=O)[C@@H](N)CCC(N)=O)[C@@H](C)CC)C(C)C)C(=O)N[C@@H](CCSC)C(=O)N[C@@H](CC(=O)O)C(=O)N[C@@H](CO)C(=O)N[C@@H](CC(C)C)C(=O)N[C@@H](Cc1c[nH]cn1)C(=O)N[C@@H](CCSC)C(=O)N[C@@H](C)C(=O)N[C@@H](C)C(=O)N[C@@H](CCCNC(=N)N)C(=O)NCC(=O)NCC(=O)N[C@@H](Cc1ccc(O)cc1)C(=O)NCC(=O)N[C@@H](CCCNC(=N)N)C(=O)N[C@@H](CCCCN)C(=O)N[C@@H](CCCCN)C(=O)N[C@@H](CCCNC(=N)N)C(=O)N[C@@H](CCCNC(=N)N)C(=O)N[C@@H](CCC(N)=O)C(=O)N[C@@H](CCCNC(=N)N)C(=O)N[C@@H](CCCNC(=N)N)C(=O)N[C@@H](CCCNC(=N)N)C(=O)O [367-384 Gly, reference compound] (H-QIAEVRGIMDSLHMAARGGYGRKKRRQRRR-OH)",–,340
CC(C)Cn1c(SC(C)C(=O)Nc2sc3c(c2C(N)=O)CCC3)nnc1N1CCOCC1 (centres unmarked) [MASM42],−1.4,–
CC(Sc1nccn1Cc1ccccc1)C(=O)Nc1sc2c(c1C(N)=O)CCC2 (centres unmarked) [MASM37],21.0,–
O=C(CSCc1ccc(F)cc1)N1CCc2c([nH]c3ccccc23)C1c1ccc(Cl)cc1 (centres unmarked) [MASM11],1.97,–
CC(Sc1nc(C2CC2)nc2c1c(=O)[nH]c(=O)n2C1CC1)C(=O)NCC1CCCCC1 (centres unmarked) [MASM8],1.2,–
CCC(C)NC(=O)c1ccccc1NC(=O)C(C)Sc1ccc(C)cc1 (centres unmarked) [MASM14],−10,–
S=C(NCCSCc1ccco1)NC1CC2CCC1C2 (centres unmarked) [MASM15],−3.6,–
CC(Sc1nnc(C2CC2)n1Cc1ccccc1)C(=O)Nc1sc2c(c1C(N)=O)CCC2 (centres unmarked) [MASM25],32.2,–
COc1ccc(SC(C)C(=O)Nc2cc[nH]n2)cc1 (centres unmarked) [MASM18],−5.8,–
CC(Sc1nnc(-c2ccco2)n1C1CCCCC1)C(=O)Nc1sc2c(c1C(N)=O)CCC2 (centres unmarked) [MASM39],9.9,–
CC(Sc1nnc(-c2ccco2)n1-c1ccccc1)C(=O)Nc1sc2c(c1C(N)=O)CCC2 (centres unmarked) [MASM22],31.7,–
CC(Sc1nnc(-c2ccccc2)n1-c1ccccc1)C(=O)Nc1sc2c(c1C(N)=O)CCC2 (centres unmarked) [MASM20],10.1,–
Cc1ccc(NC(=O)CC2SC(CC(c3ccc(C(C)C)cc3)c3c(O)[nH]c(=O)[nH]c3=O)=NC2=O)c(C)c1 (centres unmarked) [MASM17],−5.9,–
CC(Sc1nnc(-c2cccs2)n1-c1ccccc1)C(=O)Nc1sc2c(c1C(N)=O)CCC2 (centres unmarked) [MASM36],11.1,–

Compound,% of FRET reduction (human Mfn2) [%],EC50 (WT MEFs) [nM]
CC(Sc1nnc2c(Cl)cc(C(F)(F)F)cn12)C(=O)Nc1sc2c(c1C(N)=O)CCC2 (centres unmarked) [MASM34],19.4,–
CCn1c(Cc2ccccc2)nnc1SC(C)C(=O)Nc1sc2c(c1C(N)=O)CCC2 (centres unmarked) [MASM38],9.9,–
CC(Sc1nnc(C2CC2)n1-c1ccccc1)C(=O)Nc1sc2c(c1C#N)CCCCC2 (centres unmarked) [MASM28],8.0,–
CC(Sc1nnc(Cc2ccccc2)n1C)C(=O)Nc1sc2c(c1C(N)=O)CCC2 (centres unmarked) [MASM35],25.9,–
C=CCn1c(SCC(=O)Nc2sc3c(c2C(N)=O)CCC3)nnc1C1CCCCC1 [MASM30],17.7,–
CC(Sc1nnnn1C1CC1)C(=O)Nc1sc2c(c1C(N)=O)CCC2 (centres unmarked) [MASM45],26.4,–
c1ccc(CSCCc2nc(C3CCOC3)no2)cc1 (centres unmarked) [MASM12],−4.5,–
O=C(NCCSCc1ccccc1)C1CCCCO1 (centres unmarked) [MASM16],−11.2,–
Cc1nnc(SCC(=O)Nc2sc3c(c2C(N)=O)CCC3)n1-c1ccccc1 [MASM26],37.0,–
CC(c1nnc(SCC(=O)Nc2sc3c(c2C(N)=O)CCC3)n1-c1ccc(F)cc1)N(C)C (centres unmarked) [MASM33],31.9,–
Cc1ccccc1-n1c(SCC(=O)Nc2sc3c(c2C(N)=O)CCC3)nnc1-c1ccncc1 [MASM27],30.0,–
CC(Sc1nnc(C2CC2)n1-c1ccccc1)C(=O)NC(N)=O (centres unmarked) [MASM19],2.7,–
CCC(SC1Cc2cc(OC)c(OC)cc2-c2nc(CCn3nc(C)cc3C)nn21)C(=O)Nc1ccc(F)cc1 (centres unmarked) [MASM6],−0.7,–
Cn1c(SCC(=O)Nc2sc3c(c2C(N)=O)CCCC3)nnc1C1CC1 [MASM44],23.3,–
CC(=O)NC12CC3CC(C1)CC(C(=O)NCCSCc1ccc(C)cc1)(C3)C2 [MASM13],−4.6,–
NC(=O)c1c(NC(=O)CSc2nnc(C3CC3)n2Cc2ccccc2)sc2c1CCC2 [MASM43],14.8,–
Cc1cc(NC(=O)C(C)SCC(=O)Nc2ccc(NC(C)c3ccccc3)cc2)no1 (centres unmarked) [MASM1],−5.3,–
Cc1ccc(-c2nnc(SC(C)C(=O)Nc3sc4c(c3C(N)=O)CCC4)n2-c2ccccc2)o1 (centres unmarked) [MASM23],13.9,–
CC(Sc1nccn1-c1cccc(F)c1)C(=O)Nc1sc2c(c1C(N)=O)CCC2 (centres unmarked) [MASM41],10.2,–
CC(Sc1nncn1-c1ccccc1)C(=O)Nc1sc2c(c1C(N)=O)CCC2 (centres unmarked) [MASM29],16.5,–
NC(=O)c1c(NC(=O)CSc2nc(C3CC3)n(-c3ccccc3)n2)sc2c1CCC2 [MASM32],37.0,–
Cc1ccc(CSCCNC(=O)C2CCN(c3ccc4nnc(C(F)(F)F)n4n3)CC2)cc1 [MASM3],−14.1,–
